# Results reported in a melting point compilation (Tetko et al.; mined from patent text by program, amines drawn as free bases though some values may be those of a salt).
row,Compound,melting point [°C]
1,CC(C)n1cnc2c(Nc3cccc(Cl)c3)nc(Cl)nc21,128 to 129
2,CCc1c(CO)oc2ccc(Br)cc12,93 to 94
3,COC(=O)CCCC(=O)c1cc2c(c(S(N)(=O)=O)c1)OCC2,135 to 136
4,COc1nc(N)nc(-c2ccc(S(C)=O)cc2)c1-c1ccc(=O)n(C(C)C)n1 (stereo unspecified),127 to 130
5,Cc1cc(-c2cccc(C(F)(F)F)c2)n2ncc(C(=O)c3ccccc3)c2n1,153 to 154
6,O=C1c2ccccc2C(=O)N1Cc1noc(-c2ncn3c2[C@@H]2CCN2C(=O)c2c-3ccc(F)c2Cl)n1,292 to 294
7,CCCCCCc1cc2c(cc1C(=O)O)CCCCC2(C)C,74 to 75
8,COC(=O)C1(Oc2cc(-n3c(=O)cc(C(F)(F)F)n(C)c3=O)c(F)cc2Cl)CC=CNC1=O (stereo unspecified),82.4
9,CC(C)N[C@@H]1Cc2cccc(O)c2C[C@H]1O (relative stereo),138 to 140
10,CN(C)c1ccc(NC(=O)N2CCC(Nc3nccc(-c4c(-c5ccc(F)cc5)nc5occn45)n3)CC2)cc1,225 to 227
11,O=C1C=C(NC(=O)C(=O)c2cn(Cc3cccc(Cl)c3F)c3ccccc23)CO1,248 to 250
12,COC(=O)C=C(OC)c1ccccc1OCc1csc(-c2ccc(F)cc2)n1,105 to 108
13,CCCn1nc(-c2ccc(OC)cc2)cc(C(=O)NC)c1=O,106 to 107
14,CN1CCN(C(=O)Nc2ccccc2CCc2cc(C(C)(C)C)c(O)c(C(C)(C)C)c2)CC1,134 to 137
15,COC(=O)c1cncn1C1CC2CCCCC2c2ccccc21 (stereo unspecified),140
16,CC(C)[C@H]1C(=O)OCN1C(=O)OC(C)(C)C,43 to 45
17,Cc1ccc(S(=O)(=O)OCC2COc3cccc4[nH]c(=O)n2c34)cc1 (stereo unspecified),140 to 142
18,COc1ccc(CCNc2ncnc3occc23)cc1,135 to 136
19,ClCc1ccnc(OCc2cn3c(Cl)cccc3n2)c1,118 to 119
20,O=C1CCC2=C(CCc3cc(Cl)cc(Cl)c32)N1,212 to 214
21,OCC1OC(n2cc(COc3ccc(C4=NC(=Nc5[nH]c(-c6ccc(O)cc6)cc5-c5ccccc5)C(c5ccccc5)=C4)cc3)nn2)C(O)C(O)C1O (stereo unspecified),180 to 182
22,O=C(c1cccnc1)c1cc(-c2ccncc2)c(N2CCOCC2)s1,124
23,NS(=O)(=O)c1nc(-c2ccccc2F)ns1,177 to 179
24,CCCCCCn1c(=O)[nH][nH]c1=O,144 to 145

row,Compound,melting point [°C]
1,Cc1cc2cnnc(Cl)c2n1CC(C)C,96 to 99
2,CCN(CC)CCNC(=O)c1c2ccccc2nc2ccc(I)cc12,83 to 85
3,Cc1ccc(-c2cn3cc(-c4cccc(COc5ccc(Cl)cc5)c4)ccc3n2)cc1,182 to 184
4,COc1ccc2c(c1)NC(=O)C2=Cc1[nH]c2c(c1CCC(=O)O)CCCC2,263 to 266
5,N#CC(c1ccccc1Cl)N1CCOCC1 (stereo unspecified),40 to 42
6,Cn1cc(-c2cc3cccnc3[nH]2)c2ccc(C(=O)Nc3nc[nH]n3)cc21,343 to 345
7,Fc1ccc(Nc2ncnc3cc(-c4ccoc4)ccc23)cc1Cl,249 to 250
8,Cc1cc(Cl)nc(Nc2ccccc2[N+](=O)[O-])n1,175
9,COc1cc2ccc(-c3ccccc3N)cc2cc1OC,215 to 217
10,CCCc1c(S(=O)(=O)CCCOc2ccc(C(C)=O)c(OCCCC(=O)OCC)c2CCC)ccc(C(C)=O)c1O,77 to 79
11,Fc1cc(F)c2c(c1)C[C@@H](n1ccn(CCc3ccccc3)c1=S)CC2,131 to 133
12,O=C(O)c1cc(S(=O)CC(=O)c2ccccc2)cc(C(F)(F)F)c1 (stereo unspecified),148 to 151
13,C[C@@H](NS(C)(=O)=O)[C@](O)(Cn1cncn1)c1ccc(Cl)cc1Cl (relative stereo),177 to 180
14,C=CCOC(=O)c1c(C)nc2c(cnn2Cc2ccccc2)c1N,108
15,Nc1cccc(-c2ccc(CCN3CCN(c4nc(-c5ccccc5)cs4)CC3)cc2)n1,158 to 161
16,O=C(Nc1ccn(CC(O)CF)c(=O)n1)c1ccccc1 (racemic),205
17,COC(C=CC=Cc1ccc(OC)cc1)=CC(=O)O,187
18,CC=CCNc1cc(C(=O)O)cc(S(N)(=O)=O)c1Nc1ccc(NC(C)=O)cc1,230
19,CN1N=C(c2ccccc2)CC1=O,211
20,COc1ccc(C(=NOCc2ccc(OCc3nc(-c4ccccc4)oc3C)cc2)C(=O)O)cc1,183 to 184
21,N#Cc1ccc(-c2ccc(-c3nc(N)nc(N)n3)cc2)cc1,> 260
22,CS(=O)(=O)Oc1cccc(N2CCN(CCCCCC(=O)N3Cc4ccccc4C3)CC2)c1,141
23,COc1ccc(C(=O)Nc2ccc(F)cc2)c2c1oc1ccccc12,246
24,CC(C)(C)SCc1c(-c2ccc(S(C)(=O)=O)cc2)cnn(-c2ccc(F)cc2)c1=O,50 to 70

row,Compound,melting point [°C]
1,O=C(O)[C@H](Cc1cccc(OC(F)(F)C(F)F)c1)[C@@H](O)c1cccc(F)n1 (racemic),103 to 104
2,CCCN1NCc2c(C3C(=O)Nc4ccc(C(F)(F)F)cc43)ncnc21 (stereo unspecified),293 to 295
3,COC(=O)c1cc(-c2c[nH]nc2-c2ccc(F)cc2)ccn1,239 to 241
4,CC(C)(CCCCCCCCC(C)(C)NC(=O)Cc1cc(C(C)(C)C)c(O)c(C(C)(C)C)c1)NC(=O)Cc1cc(C(C)(C)C)c(O)c(C(C)(C)C)c1,168
5,COc1ccc(OC)c2c1CC1OC1C2 (stereo unspecified),130 to 132
6,CCOc1c(N2CCNCC2)c(F)cc2c(=O)c(C(=O)O)cn(C3CC3)c12,119 to 122
7,CC(=O)n1nc(CN2CCc3ccccc3C2)c2ccc(F)cc21,106 to 107
8,COC(=O)c1ccc(N2CCNCC2)nc1,91 to 92
9,CC(C)C1(Br)Cc2cc(OCC(=O)O)c(Cl)c(Cl)c2C1=O (stereo unspecified),150 to 153
10,COc1ccc(C(=O)CO)cc1,101 to 103
11,CN1CCCC1CCN1CCN(CCC2CCCN2C)C1=C(C#N)C#N (stereo unspecified),121 to 123
12,NS(=O)(=O)c1ccc(N2CC(=O)N(c3ccccc3)C2=O)cc1,255 to 257
13,CC(Oc1cc2sc(NC(=O)NCCN3CCOCC3)nc2cc1F)c1c(Cl)cccc1Cl (stereo unspecified),200 to 205
14,COc1cnccc1CCCOc1cccnc1Oc1cccc(Br)c1,134 to 136
15,COc1ccc2c(c1)CCC1CCNC(=O)C(CSC)=C21 (stereo unspecified),182 to 184
16,COc1cc(OC)cc(C2(Cl)C(=O)Nc3ccc(Cl)cc32)c1 (stereo unspecified),157
17,O=C(C=Cc1ccc(Br)s1)Nc1nnn[nH]1,268
18,Cc1nc(-c2cc(Cl)ccc2Cl)n2c1nnc1ccc(N3CCOCC3)cc12,239 to 242
19,O=c1[nH]c(C2CCCN(Cc3ccccc3)C2)cc2ccccc12 (stereo unspecified),176 to 178
20,NCc1noc(-c2ncn3c2[C@@H]2CCCN2C(=O)c2sccc2-3)n1,156 to 158
21,COCCOc1ccc(OCC2(O)CN3CCC2CC3)cc1 (stereo unspecified),93 to 95
22,CC(=O)OCc1ccc(-c2ccccc2-c2nnnn2C(c2ccccc2)(c2ccccc2)c2ccccc2)cc1,117 to 119
23,c1cncc(CSc2nnc(-c3ccc4c(c3)CCO4)o2)c1,118 to 122
